Test results: US8487121B2, “Chromane derivatives as TRPV3 modulators” (Glenmark Pharmaceuticals S.A., priority 2007, dated 2013)
pIC50: −log10 of the molar value.

Target: T1, Human TRPV3 (Homo sapiens, UniProt Q8NET8)
T1 construct: expressed in transfected cells; host or cells: CHO cells (G-418 selected)
T1 sequence (Q8NET8 1-790): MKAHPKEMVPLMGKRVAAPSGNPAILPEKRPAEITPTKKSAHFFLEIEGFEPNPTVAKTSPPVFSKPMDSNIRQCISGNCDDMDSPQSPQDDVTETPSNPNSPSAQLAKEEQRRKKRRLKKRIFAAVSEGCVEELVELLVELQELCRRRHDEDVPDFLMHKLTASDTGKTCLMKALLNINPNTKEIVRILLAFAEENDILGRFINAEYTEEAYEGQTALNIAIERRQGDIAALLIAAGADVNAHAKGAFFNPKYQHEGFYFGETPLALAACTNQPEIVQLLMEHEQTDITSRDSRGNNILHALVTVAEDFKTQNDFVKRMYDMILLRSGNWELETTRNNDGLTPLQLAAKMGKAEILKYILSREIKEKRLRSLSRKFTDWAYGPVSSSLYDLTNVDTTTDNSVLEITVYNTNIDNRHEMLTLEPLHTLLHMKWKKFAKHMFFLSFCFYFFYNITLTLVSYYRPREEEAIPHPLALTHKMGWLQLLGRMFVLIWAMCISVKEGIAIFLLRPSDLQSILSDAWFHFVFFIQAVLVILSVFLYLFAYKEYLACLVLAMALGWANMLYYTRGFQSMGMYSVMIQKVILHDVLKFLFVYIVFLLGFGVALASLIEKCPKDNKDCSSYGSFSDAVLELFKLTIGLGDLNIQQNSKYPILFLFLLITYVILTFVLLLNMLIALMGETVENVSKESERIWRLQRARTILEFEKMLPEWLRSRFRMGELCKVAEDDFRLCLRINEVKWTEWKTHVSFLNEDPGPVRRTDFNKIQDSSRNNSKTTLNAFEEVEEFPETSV
Assay: 45Calcium uptake assay: inhibition of 2-APB induced cellular uptake of radioactive calcium
Type: cell-based
Settings: human TRPV3 expressing CHO cells, 2-APB 500 μM; for inhibition at 1 µM: 1.0 μM compound, read-out: Percentage inhibition at 1.0 μM; for inhibition at 10 µM: 10.0 μM compound, read-out: Percentage inhibition at 10.0 μM
Procedure, shortened: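 CHO cells stably expressing human TRPV3 (~50,000/well) were preincubated with compounds for 10 min in medium containing 0.1% BSA, 1.8 mM CaCl2 and 0.5% DMSO. Then 500 μM 2-APB and 5 μCi/ml 45Ca2+ were added for 4 min. Lysate radioactivity was expressed as % of maximal uninhibited response, and IC50 came from nonlinear regression, alongside % inhibition at 1.0 and 10.0 μM.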

| SMILES | inhibition at 1 µM [%] | inhibition at 10 µM [%] | pIC50 |
| --- | --- | --- | --- |
| O=C(CCc1c[nH]c2ccccc12)NC1CC2(CCC2)Oc2ccc(Cl)cc21 (stereo not drawn) [Example 77, N-(6-Chloro-3,4-dihydrospiro[chromene-2,1′-cyclobutan]-4-yl)-3-(1H-indol-3-yl)-propanamide] | 39.4 | 81.8 | – |
| COc1ccc(CCC(=O)NC2CC3(CCC3)Oc3ccc(Cl)cc32)c2cc(C)oc12 (stereo not drawn) [Example 78, N-(6-chloro-3,4-dihydrospiro[chromene-2,1′-cyclobutan]-4-yl)-3-(2-methyl, 7-methoxy-1-benzofuran-4-yl)propanamide] | 46.1 | 91.3 | 6.00 to 6.30 |
| COc1cc(CCC(=O)N[C@@H]2CC3(CCC3)Oc3ccc(Cl)cc32)cc2cc(C)oc12 [Example 79, N-[(4R)-6-Chloro-3,4-dihydrospiro[chromene-2,1′-cyclobutan]-4-yl]-3-(7-methoxy-2-methyl-1-benzofuran-5-yl)propanamide] | 51.5 | 95.5 | – |
| COc1cc(CCC(=O)N[C@H]2CC3(CCC3)Oc3ccc(Cl)cc32)cc2cc(C)oc12 [Example 80, N-[(4S)-6-chloro-3,4-dihydrospiro[chromene-2,1′-cyclobutan]-4-yl]-3-(7-methoxy-2-methyl-1-benzofuran-5-yl)propanamide] | 73.5 | 98.6 | 6.00 to 6.30 |
| O=C(CCc1ccc2c(c1)OCCO2)NC1CC2(CCC2)Oc2ccc(F)cc21 (stereo not drawn) [Example 81] | 29.1 | 54.8 | – |
| O=C(CCc1cccc2c1OCO2)NC1CC2(CCC2)Oc2ccc(Cl)cc21 (stereo not drawn) [Example 82, 3-(1,3-Benzodioxol-4-yl)-N-[6-chloro-3,4-dihydrospiro[chromene-2,1′-cyclobutan]-4-yl]propanamide] | 24.3 | 90.9 | – |
| O=C(CCc1cccc2c1OCO2)NC1CC2(CCC2)Oc2c(Cl)cccc21 (stereo not drawn) [Example 83, 3-(1,3-Benzodioxol-4-yl)-N-(8-chloro-3,4-dihydrospiro[chromene-2,1′-cyclobutan]-4-yl)propanamide] | 11 | 83.2 | – |
| O=C(CCc1cccc2c1OCCO2)NC1CC2(CCC2)Oc2ccc(Cl)cc21 (stereo not drawn) [Example 84] | 11 | 83.2 | – |
| O=C(CCc1cccc2c1oc1ccccc12)NC1CC2(CCC2)Oc2ccc(Cl)cc21 (stereo not drawn) [Example 85, N-(6-Chloro-3,4-dihydrospiro[chromene-2,1′-cyclobutan]-4-yl)-3-(dibenzo[b,d]furan-4-yl)propanamide] | 76.9 | 90.4 | > 6.30 |
| COc1cccc(CCC(=O)NC2CC(C)(C)Oc3ccccc32)c1OC1CCCC1 (stereo not drawn) [Example 88, N-(2,2-Dimethyl-3,4-dihydro-2H-chromen-4-yl)-3-(2-cyclopentyloxy-3-methoxy)phenylpropanamide] | 17.1 | 93.2 | – |
| COc1cccc(CCC(=O)NC2CCSc3ccc(Cl)cc32)c1OC1CCCC1 (stereo not drawn) [Example 89, N-(6-chloro-3,4-dihydro-2H-thiochromen-4-yl)-3-(2-cyclopentyloxy-3-methoxyphenyl)-propanamide] | 38 | 87.3 | – |
| COc1ccc2ccccc2c1CCC(=O)NC1CCSc2ccc(Cl)cc21 (stereo not drawn) [Example 90, N-(6-chloro-3,4-dihydro-2H-thiochromen-4-yl)-3-(2-methoxy-1-naphthyl)propanamide] | 49.2 | 91.4 | – |
| O=C(CCCc1ccccc1OC1CCCC1)NC1CC2(CCC2)Oc2ccc(Cl)cc21 (stereo not drawn) [Example 91, N-(6-Chloro-3,4-dihydrospiro[chromene-2,1′-cyclobutan]-4-yl)-4-(2-cyclopentyloxy-phenyl)butanamide] | 51 | 82.5 | – |
| COc1cccc(CCCC(=O)NC2CC3(CCC3)Oc3c(Cl)cc(F)cc32)c1OC1CCCC1 (stereo not drawn) [Example 97, N-(8-Chloro-6-fluoro-3,4-dihydrospiro[chromene-2,1′-cyclobutan]-4-yl)-4-(2-cyclopentyloxy-3-methoxyphenyl)butanamide] | 60 | 90.3 | 5.70 to 6.00 |
| COc1cccc(CCCC(=O)NC2CC3(CCC3)Oc3c(Cl)cc(Cl)cc32)c1OC1CCCC1 (stereo not drawn) [Example 98, N-(6,8-Dichloro-3,4-dihydrospiro[chromene-2,1′-cyclobutan]-4-yl)-4-(2-cyclopentyloxy-3-methoxyphenyl)butanamide] | 36.9 | 69.5 | – |
| COc1cccc(CCCC(=O)NC2CC3(CCC3)Oc3cc(OCc4ccccc4)ccc32)c1OC1CCCC1 (stereo not drawn) [Example 99, N-(7-Benzyloxy-3,4-dihydrospiro[chromene-2,1′-cyclobutan]-4-yl)-4-(2-cyclopentyloxy-3-methoxyphenyl)butanamide] | 19.9 | 19.6 | – |
| COc1ccc(C(=O)CCC(=O)NC2CC3(CCC3)Oc3ccc(Cl)cc32)c2ccccc12 (stereo not drawn) [Example 101, N-(6-Chloro-3,4-dihydrospiro[chromene-2,1′-cyclobutan]-4-yl)-4-oxo-4-(4-methoxy-naphthyl)butanamide] | 26.5 | 63.2 | – |
| COc1ccc(C(O)CCC(=O)NC2CC3(CCC3)Oc3ccc(Cl)cc32)c2ccccc12 (stereo not drawn) [Example 102, N-(6-Chloro-3,4-dihydrospiro[chromene-2,1′-cyclobutan]-4-yl)-4-hydroxy-4-(4-methoxynaphthyl)butanamide] | 26.6 | 42.8 | – |
| COc1cccc(CCCC(=O)NC2CC(C)(C)Oc3ccc(Cl)cc32)c1OC1CCCC1 (stereo not drawn) [Example 103, N-(6-Chloro-2,2-dimethyl-3,4-dihydro-2H-chromen-4-yl)-4-(2-cyclopentyloxy-3-methoxy)phenylbutanamide] | 69.4 | 96.4 | 6.00 to 6.30 |

Results, then the molecule that gave them:

| inhibition at 1 µM [%] | inhibition at 10 µM [%] | pIC50 | SMILES |
| --- | --- | --- | --- |
| 11.6 | 66 | – | COc1cccc(CCC(=O)NC2CC3(CCCC3)Oc3ccc(Cl)cc32)c1OC1CCCC1 (stereo not drawn) [Example 86, N-(6-Chloro-3,4-dihydrospiro[chromene-2,1′-cyclopentan]-4-yl)-3-(2-cyclopentyloxy-3-methoxy)propanamide] |
| 26.7 | 67.3 | – | COc1cccc(CCC(=O)NC2CC3(CCCCC3)Oc3ccc(Cl)cc32)c1OC1CCCC1 (stereo not drawn) [Example 87, N-(6-Chloro-3,4-dihydrospiro[chromene-2,1′-cyclohexan]-4-yl)-3-(2-cyclopentyloxy-3-methoxy)phenylpropanamide] |
| 86.1 | 95.8 | > 6.30 | COc1cccc(CCCC(=O)NC2CC3(CCC3)Oc3ccc(Cl)cc32)c1OC1CCCC1 (stereo not drawn) [Example 92, N-(6-Chloro-3,4-dihydrospiro[chromene-2,1′-cyclobutan]-4-yl)-4-[2-(cyclopentyloxy)-3-methoxyphenyl]butanamide] |
| 72.8 | 94.2 | 6.00 to 6.30 | COc1cccc(CCCC(=O)N[C@@H]2CC3(CCC3)Oc3ccc(Cl)cc32)c1OC1CCCC1 [Example 93, N-(4R)-6-Chloro-3,4-dihydrospiro[chromene-2,1′-cyclobutan]-4-yl-4-(2-cyclopentyloxy-3-methoxyphenyl)butanamide] |
| 79.7 | 97.2 | > 6.30 | COc1cccc(CCCC(=O)N[C@H]2CC3(CCC3)Oc3ccc(Cl)cc32)c1OC1CCCC1 [Example 94] |
| 71.8 | 96.5 | 6.00 to 6.30 | COc1cccc(CCCC(=O)N[C@@H]2CC3(CCC3)Oc3c(Cl)cccc32)c1OC1CCCC1 [Example 95, (4R)—N-(8-Chloro-3,4-dihydrospiro[chromene-2,1′-cyclobutan]-4-yl)-4-(2-cyclopentyloxy-3-methoxyphenyl)butanamide] |
| 44.4 | 80.9 | – | COc1cccc(CCCC(=O)N[C@H]2CC3(CCC3)Oc3c(Cl)cccc32)c1OC1CCCC1 [Example 96, (4S)—N-(8-Chloro-3,4-dihydrospiro[chromene-2,1′-cyclobutan]-4-yl)-4-(2-cyclopentyloxy-3-methoxyphenyl)butanamide] |
| 19.4 | 87 | – | COc1cccc(CCCC(=O)NC2CC3(CCC3)Oc3cc(O)ccc32)c1OC1CCCC1 (stereo not drawn) [Example 100, N-(7-Hydroxy-3,4-dihydrospiro[chromene-2,1′-cyclobutan]-4-yl)-4-(2-cyclopentyloxy-3-methoxyphenyl)butanamide] |
